Read-outs that look alike come from different tables or passages of the source.
Columns and labels:
[1] = Human liver microsomes stability; type: in vitro ADME; details: human liver microsomes
In short: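 Microsomes in phosphate buffer with MgCl2 were pre-warmed for 5 min at 37° C and 1 mM NADPH was added. Reactions began with 2 μM compound, and aliquots were stopped with cold methanol at five times up to 60 min. Remaining parent by LC-MS/MS gave the half-life and CLint.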

[2] = Mouse liver microsomes stability; type: in vitro ADME; details: mouse liver microsomes
[3] = Pharmacokinetic studies in rat (i.v.); type: in vivo; details: male, Sprague-Dawley, rat, plasma, dose 1.37 mg/kg (I-71, I-128), 1.33 mg/kg ((S) I-67); for concentration at 0.25 h / concentration at 1 h / concentration at 4 h: intravenous, rat i.v.; for AUC(0-t) / half-life: iv, rat plasma, i.v.; for half-life: estimated from 2 points only
In short: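 Male Sprague-Dawley rats (~225-350 g) received compounds intravenously via tail vein in 5% Tween-80 in saline. Saphenous blood was sampled at 0.25, 1 and 4 h and analysed by LC-MS/MS. t1/2 and AUC0-tlast came from non-compartmental analysis using the linear up/log down trapezoidal rule.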

[4] = first individual rat (R01/R04), read-out: Plasma concentration
[5] = mean of 3 rats, read-out: Plasma concentration, Mean ± SD
[6] = second individual rat (R02/R05), read-out: Plasma concentration
[7] = third individual rat (R03/R06), read-out: Plasma concentration

## COc1ccc2[nH]cc(CCN3CC[C@H](OC(F)F)C3)c2c1 [(S) I-67, (S)-3-(2-(3-(Difluoromethoxy)pyrrolidin-1-yl)ethyl)-5-methoxy-1H-indole]
[1]
  Predicted hepatic CL: 13.30 mL/min/kg
[1]; 2 μM compound, 0.5 mg/mL
  half-life at 2 μM: 46.8 min
[1]; 2 μM compound, 0.5 mg/mL, read-out: CLint (μL/min/mg protein)
  microsomal CLint at 2 μM: 29.6 µL/min/mg
[1]; With Cofactors, 0 min
  Remaining Percentage (%): 100.00%
[1]; With Cofactors, 30 min
  Remaining Percentage (%): 66.20%
[1]; With Cofactors, 60 min
  Remaining Percentage (%): 41.10%
[1]; Without Cofactors, 0 min
  Remaining Percentage (%): 100.00%
[1]; Without Cofactors, 30 min
  Remaining Percentage (%): 98.68%
[1]; Without Cofactors, 60 min
  Remaining Percentage (%): 100.00%
[1]; read-out: Scaled-up CLint
  CLint scaled at 2 μM: 37.2 mL/min/kg
[2]; male, mouse, pooled liver microsomes, 2 μM compound, 0.5 mg/mL, read-out: CLint (μL/min/mg protein)
  microsomal CLint at 2 μM: 69.3 µL/min/mg
[2]; male, pooled liver microsomes, 2 μM compound, 0.5 mg/mL
  half-life at 2 μM: 20 min
[2]; male, pooled liver microsomes, read-out: Scaled-up CLint
  CLint scaled at 2 μM: 303 mL/min/kg
[2]
  Predicted hepatic CL: 69.41 mL/min/kg
[2]; With Cofactors, 0 min
  Remaining Percentage (%): 100.00%
[2]; With Cofactors, 30 min
  Remaining Percentage (%): 34.21%
[2]; With Cofactors, 60 min
  Remaining Percentage (%): 12.49%
[2]; Without Cofactors, 0 min
  Remaining Percentage (%): 100.00%
[2]; Without Cofactors, 30 min
  Remaining Percentage (%): 103.46%
[2]; Without Cofactors, 60 min
  Remaining Percentage (%): 100.35%
[3]; [4]
  concentration at 0.25 h: 413 ng/mL
  concentration at 1 h: 172 ng/mL
  concentration at 4 h: 5.35 ng/mL
[3]; [5]
  concentration at 0.25 h: 436 ± 32.4 ng/mL
  concentration at 1 h: 162 ± 9.07 ng/mL
  concentration at 4 h: 6.96 ± 1.54 ng/mL
[3]; [6]
  concentration at 0.25 h: 473 ng/mL
  concentration at 1 h: 155 ng/mL
  concentration at 4 h: 8.41 ng/mL
[3]; [7]
  concentration at 0.25 h: 422 ng/mL
  concentration at 1 h: 158 ng/mL
  concentration at 4 h: 7.12 ng/mL
[3]; first individual rat (R01/R04), read-out: AUC0-tlast
  AUC(0-t): 470 ng·h/mL
[3]; first individual rat (R01/R04), read-out: Apparent t1/2 (converted)
  half-life: 35.9 min
[3]; mean of 3 rats, read-out: AUC0-tlast, Mean ± SD
  AUC(0-t): 484 ± 21.1 ng·h/mL
[3]; mean of 3 rats, read-out: Apparent t1/2, Mean ± SD (converted)
  half-life: 38.2 ± 2.02 min
[3]; second individual rat (R02/R05), read-out: AUC0-tlast
  AUC(0-t): 508 ng·h/mL
[3]; second individual rat (R02/R05), read-out: Apparent t1/2 (converted)
  half-life: 39.8 min
[3]; third individual rat (R03/R06), read-out: AUC0-tlast
  AUC(0-t): 472 ng·h/mL
[3]; third individual rat (R03/R06), read-out: Apparent t1/2 (converted)
  half-life: 38.8 min

From patent publication US20250257034A1, “INDOLE DERIVATIVES AS SEROTONERGIC AGENTS USEFUL FOR THE TREATMENT OF DISORDERS RELATED THERETO” (priority 2023, published 2025)
